System: skin keratinocyte cell line HaCaT
Test: Resazurin assay of HaCaT keratinocyte cell proliferation and viability
Assay type: cell-based, human
Conditions: Example 2, 24 hours, Calcipotriol alone 10 μM, FIG. 2
Description: The spontaneously immortalized, nontumorigenic skin keratinocyte cell line HaCaT was maintained in DMEM supplemented with 5% (v/v) FBS, 0.3 mg/ml glutamine and 0.1 mg/ml gentamicin at 37° C. with 5% CO2 in a humidified atmosphere. Subculture using trypsin-EDTA was performed every 3-4 days with split ratio of 1:3-1:4 to ensure actively proliferating cells.
Cells were seeded in 96 well plates in fully supplemented medium at a density of 2500 cells per well. Following 72 hours of cultivation, the cells were starved of serum in 0.25% FBS/DMEM overnight to halt proliferation, synchronize the cells and to increase cell sensitivity to treatment. On day 4, the cells were treated with cPLA2a inhibitor Compound A and corticosteroid Betamethasone 17, 21-dipropionate (Sigma Aldrich # B1152) and left to incubate for […] in incubator at 37° C. with 5% CO2 in a humidified atmosphere before fluorescence was read at 544 nm excitation and 590 nm emission wavelength. […]
Cells were seeded in 96 well plates in fully supplemented medium at a density of 2500 cells per well. […] On day 5, resazurin was added according to the manufacturer's instruction (RnD Systems, UK) and left to incubate for 2 hour incubator at 37° C. with 5% CO2 in a humidified atmosphere before fluorescence was read at 544 nm excitation and 590 nm emission wavelength. […]

## C=C1/C(=C\C=C2/CCC[C@]3(C)[C@@H]([C@H](C)/C=C/[C@@H](O)C4CC4)CC[C@@H]23)C[C@@H](O)C[C@@H]1O [Calcipotriol, Calcipotriol hydrate]
  reduction of cell proliferation: 20%
